Source: ChEMBL document CHEMBL4619728, “A chemically stable peptide agonist to neuromedin U receptor type 2” (Bioorg Med Chem, 2020)
Each block holds one compound with its values, some of them ahead of it. Active and inactive are the calls of the source. No cut-off for these calls is given here. Square brackets hold non-standard residues; d marks the D form. Side chains are listed from the residue outwards. Peptide text beside a SMILES is read from it. * marks the point of attachment. Propanoyl(3-cHex) = O=C(CCC1CCCCC1)*; 2Pal = N[C@@H](Cc1ccccn1)C(=O)O; 3Pal = N[C@@H](Cc1cccnc1)C(=O)O; 4Pal = N[C@@H](Cc1ccncc1)C(=O)O; hSer = N[C@@H](CCO)C(=O)O; Api = NC1(C(=O)O)CCNCC1; Dab = NCC[C@H](N)C(=O)O; Dap = NC[C@H](N)C(=O)O

Columns and labels:
[1] = biological target: T1, Neuromedin-U receptor 2 (Homo sapiens, UniProt Q9GZQ4); experiment: Agonist activity at human NMUR2 expressed in CHO cells at 10 nM by Fluo-4-AM dye based calcium mobilization assay; assay type: functional, cell-based
T1 sequence (Q9GZQ4 whole entry): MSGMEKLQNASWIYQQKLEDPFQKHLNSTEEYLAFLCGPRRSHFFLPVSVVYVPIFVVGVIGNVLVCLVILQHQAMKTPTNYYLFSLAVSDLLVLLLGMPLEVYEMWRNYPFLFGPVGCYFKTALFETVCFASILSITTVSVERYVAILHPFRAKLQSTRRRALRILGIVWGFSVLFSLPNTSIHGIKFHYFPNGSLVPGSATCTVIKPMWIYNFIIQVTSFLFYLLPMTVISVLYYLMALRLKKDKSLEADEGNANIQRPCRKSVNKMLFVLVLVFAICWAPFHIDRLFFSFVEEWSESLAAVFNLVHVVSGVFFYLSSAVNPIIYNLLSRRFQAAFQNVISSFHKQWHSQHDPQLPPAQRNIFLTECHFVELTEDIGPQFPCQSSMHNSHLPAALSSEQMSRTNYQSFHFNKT

[2] = biological target: T2, Neuromedin-U receptor 1 (Homo sapiens) (UniProt Q9HB89); experiment: Agonist activity at human NMUR1 expressed in CHO cells at 10 nM by Fluo-4-AM dye based calcium mobilization assay; assay type: functional, cell-based
T2 sequence (whole entry): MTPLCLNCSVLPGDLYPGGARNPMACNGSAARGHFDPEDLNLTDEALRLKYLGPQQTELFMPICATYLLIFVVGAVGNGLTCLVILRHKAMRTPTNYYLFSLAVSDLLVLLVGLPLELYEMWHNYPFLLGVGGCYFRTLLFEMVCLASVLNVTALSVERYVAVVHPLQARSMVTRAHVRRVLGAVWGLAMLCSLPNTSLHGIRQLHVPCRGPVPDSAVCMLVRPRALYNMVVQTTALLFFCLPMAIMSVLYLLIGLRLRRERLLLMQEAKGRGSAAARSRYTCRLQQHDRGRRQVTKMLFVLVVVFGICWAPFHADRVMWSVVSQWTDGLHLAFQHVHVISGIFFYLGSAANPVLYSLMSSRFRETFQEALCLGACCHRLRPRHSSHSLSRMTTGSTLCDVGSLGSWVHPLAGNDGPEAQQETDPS

[3] = Toxicity in ddY mouse assessed as reduction in body weight gain at 20 ug ,ip; conditions: in vivo
[4] = Chemical stability of compound in pH 7.4 phosphate buffer at 50 uM assessed as compound recovery after 72 hrs by spectrometric analysis; assay type: physicochemical; conditions: read-out: Drug recovery
[5] = Toxicity in ddY mouse assessed as reduction in body weight gain at 25 to 250 ug intranasal administration; conditions: in vivo, inhaled_or_intranasal
[6] = Chemical stability of compound in pH 5.5 citrate buffer at 50 uM assessed as compound recovery after 72 hrs by spectrometric analysis; assay type: physicochemical; conditions: read-out: Drug recovery
[7] = biological target: T1, Neuromedin-U receptor 2; experiment: Agonist activity at human NMUR2 expressed in CHO cells by Fluo-4-AM dye based calcium mobilization assay; assay type: functional, cell-based
[8] = biological target: Neuromedin-U receptor 2 (Mus musculus) (UniProt Q8BZ39); experiment: Agonist activity at mouse NMUR2 expressed in human HEK293 cells at 10 nM Fluo-4-AM dye based calcium mobilization assay relative to control; assay type: functional, cell-based
Chain of Neuromedin-U receptor 2 (Mus musculus) (Q8BZ39 whole entry): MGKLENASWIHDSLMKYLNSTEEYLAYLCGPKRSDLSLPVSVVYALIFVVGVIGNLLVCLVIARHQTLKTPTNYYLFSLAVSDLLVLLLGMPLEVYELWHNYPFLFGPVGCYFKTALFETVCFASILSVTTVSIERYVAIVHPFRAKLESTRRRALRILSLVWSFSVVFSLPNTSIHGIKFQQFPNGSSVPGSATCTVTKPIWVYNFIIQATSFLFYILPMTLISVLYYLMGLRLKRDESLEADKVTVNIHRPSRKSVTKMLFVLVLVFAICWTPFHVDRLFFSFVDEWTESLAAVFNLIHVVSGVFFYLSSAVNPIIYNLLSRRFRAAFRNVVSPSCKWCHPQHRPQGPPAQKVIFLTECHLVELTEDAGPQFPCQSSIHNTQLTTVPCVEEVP

[9] = biological target: Neuromedin-U receptor 2 (Mus musculus) (UniProt Q8BZ39); experiment: Agonist activity at mouse NMUR2 expressed in human HEK293 cells Fluo-4-AM dye based calcium mobilization assay; assay type: functional, cell-based
[10] = biological target: T2, Neuromedin-U receptor 1 (Homo sapiens); experiment: Agonist activity at human NMUR1 expressed in CHO cells at 1 nM by Fluo-4-AM dye based calcium mobilization assay; assay type: functional, cell-based
[11] = biological target: T1, Neuromedin-U receptor 2; experiment: Agonist activity at human NMUR2 expressed in CHO cells at 1 nM by Fluo-4-AM dye based calcium mobilization assay; assay type: functional, cell-based
[12] = biological target: T2, Neuromedin-U receptor 1 (Homo sapiens); experiment: Agonist activity at human NMUR1 expressed in CHO cells at 100 nM by Fluo-4-AM dye based calcium mobilization assay; assay type: functional, cell-based
[13] = biological target: T1, Neuromedin-U receptor 2; experiment: Agonist activity at human NMUR2 expressed in CHO cells at 100 nM by Fluo-4-AM dye based calcium mobilization assay; assay type: functional, cell-based
[14] = Chemical stability of compound in pH 7.4 HEPES buffer at 50 uM assessed as compound recovery after 72 hrs by spectrometric analysis; assay type: physicochemical; conditions: read-out: Drug recovery
[15] = Chemical stability of compound in pH 5.5 citrate-posphate buffer at 50 uM assessed as compound recovery after 72 hrs by spectrometric analysis; assay type: physicochemical; conditions: citrate-phosphate buffer, read-out: Drug recovery
[16] = Chemical stability of compound in pH 5.5 acetate buffer at 50 uM assessed as compound recovery after 72 hrs by spectrometric analysis; assay type: physicochemical; conditions: read-out: Drug recovery
[17] = Chemical stability of compound in MES buffer pH 5.5 at 100 mM assessed as compound recovery after 72 hrs by spectrometric analysis; assay type: physicochemical; conditions: read-out: Drug recovery

remaining at 72 h, 50 µM [4]: 95% | remaining at 72 h, 50 µM [6]: 98% | Activity [7]: Dose-dependent effect | EC50 [7]: 2.2 nM | Activity [8]: 100% | Activity [9]: Active
Structure (SMILES): CC(C)C[C@H](NC(=O)CCC1CCCCC1)C(=O)N[C@@H](CC(C)C)C(=O)N[C@@H](CCN)C(=O)N1CCC[C@H]1C(=O)N[C@@H](CCCNC(=N)N)C(=O)N[C@@H](CC(N)=O)C(N)=O ({Propanoyl(3-cHex)}-LL[Dab]PRN-NH2)
Activity [3]: Toxic | Activity [5]: Toxic

Activity [10]: inactive | Activity [11]: inactive
Structure (SMILES): CC(C)C[C@H](NC(=O)CCC1CCCCC1)C(=O)N[C@@H](CC(C)C)C(=O)N[C@@H](CC(N)=O)C(=O)N1CCC[C@H]1C(=O)N[C@@H](CCCNC(=N)N)C(=O)N[C@@H](CC(N)=O)C(N)=O ({Propanoyl(3-cHex)}-LLNPRN-NH2)

Activity [10]: inactive | Activity [11]: inactive | Activity [12]: Active | Activity [13]: Active
Structure (SMILES): CC(C)C[C@H](NC(=O)CCC1CCCCC1)C(=O)N[C@@H](CC(C)C)C(=O)N[C@@H](CO)C(=O)N1CCC[C@H]1C(=O)N[C@@H](CCCNC(=N)N)C(=O)N[C@@H](CC(N)=O)C(N)=O ({Propanoyl(3-cHex)}-LLSPRN-NH2)

Activity [1]: inactive | Activity [2]: inactive
Structure (SMILES): CC(C)C[C@H](NC(=O)CCC1CCCCC1)C(=O)N[C@@H](CC(C)C)C(=O)N[C@@H](CS)C(=O)N1CCC[C@H]1C(=O)N[C@@H](CCCNC(=N)N)C(=O)N[C@@H](CC(N)=O)C(N)=O ({Propanoyl(3-cHex)}-LLCPRN-NH2)

remaining at 72 h, 50 µM [14]: 92% | remaining at 72 h, 50 µM [15]: 64% | remaining at 72 h, 50 µM [4]: 87% | remaining at 72 h, 50 µM [16]: 89% | remaining at 72 h [17]: 93% | remaining at 72 h, 50 µM [6]: 81%
Structure (SMILES): CC(C)C[C@H](NC(=O)CCC1CCCCC1)C(=O)N[C@@H](CC(C)C)C(=O)N[C@@H](CN)C(=O)N1CCC[C@H]1C(=O)N[C@@H](CCCNC(=N)N)C(=O)N[C@@H](CC(N)=O)C(N)=O ({Propanoyl(3-cHex)}-LL[Dap]PRN-NH2)

Activity [1]: inactive | Activity [2]: inactive
Structure (SMILES): CC(C)C[C@H](NC(=O)CCC1CCCCC1)C(=O)N[C@@H](CC(C)C)C(=O)N[C@@H](CCO)C(=O)N1CCC[C@H]1C(=O)N[C@@H](CCCNC(=N)N)C(=O)N[C@@H](CC(N)=O)C(N)=O ({Propanoyl(3-cHex)}-LL[hSer]PRN-NH2)

The remaining lines, values behind:

Structure (SMILES): CC(C)C[C@H](NC(=O)CCC1CCCCC1)C(=O)N[C@@H](CC(C)C)C(=O)N[C@H](C(=O)N1CCC[C@H]1C(=O)N[C@@H](CCCNC(=N)N)C(=O)N[C@@H](CC(N)=O)C(N)=O)[C@@H](C)O
Activity [1]: inactive | Activity [2]: inactive

Structure (SMILES): CC(C)C[C@H](NC(=O)CCC1CCCCC1)C(=O)N[C@@H](CC(C)C)C(=O)N[C@@H](Cc1cccnc1)C(=O)N1CCC[C@H]1C(=O)N[C@@H](CCCNC(=N)N)C(=O)N[C@@H](CC(N)=O)C(N)=O ({Propanoyl(3-cHex)}-LL[3Pal]PRN-NH2)
Activity [8]: 20 to 40%

Structure (SMILES): CC(C)C[C@H](NC(=O)CCC1CCCCC1)C(=O)N[C@@H](CC(C)C)C(=O)NC1(C(=O)N2CCC[C@H]2C(=O)N[C@@H](CCCNC(=N)N)C(=O)N[C@@H](CC(N)=O)C(N)=O)CCNCC1 ({Propanoyl(3-cHex)}-LL[Api]PRN-NH2)
Activity [8]: inactive

Structure (SMILES): COC[C@H](NC(=O)[C@H](CC(C)C)NC(=O)[C@H](CC(C)C)NC(=O)CCC1CCCCC1)C(=O)N1CCC[C@H]1C(=O)N[C@@H](CCCNC(=N)N)C(=O)N[C@@H](CC(N)=O)C(N)=O ({Propanoyl(3-cHex)}-LLS(Me)PRN-NH2)
Activity [1]: inactive | Activity [2]: inactive

Structure (SMILES): CC(C)C[C@H](NC(=O)CCC1CCCCC1)C(=O)N[C@@H](CC(C)C)C(=O)N[C@@H](Cc1ccncc1)C(=O)N1CCC[C@H]1C(=O)N[C@@H](CCCNC(=N)N)C(=O)N[C@@H](CC(N)=O)C(N)=O ({Propanoyl(3-cHex)}-LL[4Pal]PRN-NH2)
Activity [8]: 20 to 40%

Structure (SMILES): CC(C)C[C@H](NC(=O)CCC1CCCCC1)C(=O)N[C@@H](CC(C)C)C(=O)N[C@@H](CC(=O)O)C(=O)N1CCC[C@H]1C(=O)N[C@@H](CCCNC(=N)N)C(=O)N[C@@H](CC(N)=O)C(N)=O ({Propanoyl(3-cHex)}-LLDPRN-NH2)
Activity [10]: inactive | Activity [11]: inactive | Activity [12]: inactive | Activity [13]: inactive

Structure (SMILES): CC(C)C[C@H](NC(=O)CCC1CCCCC1)C(=O)N[C@@H](CC(C)C)C(=O)NCC[C@H](N)C(=O)N1CCC[C@H]1C(=O)N[C@@H](CCCNC(=N)N)C(=O)N[C@@H](CC(N)=O)C(N)=O (H-[Dab]([Leu-Leu-Propanoyl(3-cHex)])PRN-NH2)
Activity [12]: 6% | Activity [13]: 6%

Structure (SMILES): CC(C)C[C@H](NC(=O)CCC1CCCCC1)C(=O)N[C@@H](CC(C)C)C(=O)N[C@H](C(=O)N1CCC[C@H]1C(=O)N[C@@H](CCCNC(=N)N)C(=O)N[C@@H](CC(N)=O)C(N)=O)[C@H](C)O
Activity [1]: inactive | Activity [2]: inactive

Structure (SMILES): CC(C)C[C@H](NC(=O)CCC1CCCCC1)C(=O)N[C@@H](CC(C)C)C(=O)N[C@@H](Cc1ccccn1)C(=O)N1CCC[C@H]1C(=O)N[C@@H](CCCNC(=N)N)C(=O)N[C@@H](CC(N)=O)C(N)=O ({Propanoyl(3-cHex)}-LL[2Pal]PRN-NH2)
Activity [8]: 20 to 40%
